Measured values from US7612211B2, “Benzimidazole TRPV1 inhibitors” (Janssen Pharmaceutica N.V., priority 2006, dated 2009).

Target: T1, hTRPV1 (Homo sapiens, UniProt Q8NER1)
T1 construct: expressed in transfected cells; host or cells: HEK293
Experiment: Human TRPV1 (hTRPV1) functional assay, FLIPR intracellular Ca2+, capsaicin challenge
Format: cell-based
Conditions: HEK293 cells expressing hTRPV1, capsaicin 0.030 μM challenge; for inhibition at 0.5 µM: test concentration of 0.5 μm, read-out: percent inhibition (symbol a); for IC50: derived from a variety of test concentrations, read-out: IC50 value (symbol c)
Summary of the method: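 HEK293 cells expressing the channel, loaded with Calcium 3 dye, were exposed to compounds for 5 min before capsaicin 0.030 μM (~80% maximal). FLIPR Ca2+ read; IC50/EC50 from quadruplicate concentration-response, or percent inhibition at 0.5 μm or 0.2 μm.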

T1 sequence (Q8NER1 whole entry): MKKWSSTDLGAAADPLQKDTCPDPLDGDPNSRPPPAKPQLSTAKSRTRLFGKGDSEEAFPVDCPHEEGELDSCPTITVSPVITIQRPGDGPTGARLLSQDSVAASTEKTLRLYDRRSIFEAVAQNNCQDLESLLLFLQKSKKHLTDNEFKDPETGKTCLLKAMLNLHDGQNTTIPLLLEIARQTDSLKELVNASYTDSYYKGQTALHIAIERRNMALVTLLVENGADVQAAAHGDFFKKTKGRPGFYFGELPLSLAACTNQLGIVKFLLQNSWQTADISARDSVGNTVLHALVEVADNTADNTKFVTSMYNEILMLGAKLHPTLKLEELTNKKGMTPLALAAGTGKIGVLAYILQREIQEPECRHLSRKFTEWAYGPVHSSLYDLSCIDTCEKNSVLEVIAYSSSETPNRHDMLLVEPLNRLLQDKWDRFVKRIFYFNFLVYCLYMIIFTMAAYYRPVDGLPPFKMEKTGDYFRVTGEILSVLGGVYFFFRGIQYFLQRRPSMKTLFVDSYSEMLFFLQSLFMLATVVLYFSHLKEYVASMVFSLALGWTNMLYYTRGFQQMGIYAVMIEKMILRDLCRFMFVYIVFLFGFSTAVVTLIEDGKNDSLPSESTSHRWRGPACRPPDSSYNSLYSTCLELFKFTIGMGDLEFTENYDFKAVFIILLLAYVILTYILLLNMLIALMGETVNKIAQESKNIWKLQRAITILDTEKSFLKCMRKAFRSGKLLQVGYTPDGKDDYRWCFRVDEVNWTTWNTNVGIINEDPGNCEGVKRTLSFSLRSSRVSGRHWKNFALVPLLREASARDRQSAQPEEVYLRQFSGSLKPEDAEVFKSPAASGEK

inhibition at 0.5 µM [%]	IC50 [nM]	inhibition at 0.2 µM (test concentration of 0.2 μm, read-out: percent inhibition (symbol b)) [%]	Structure (SMILES)
10			Cc1cccc(-c2ccc3[nH]c(COc4ccc(C(F)(F)F)cc4)nc3c2)c1 [Cpd 108, 5-m-tolyl-2-(4-trifluoromethyl-phenoxymethyl)-1H-benzoimidazole]
3			Cc1ccc(-c2ccc3[nH]c(COc4ccc(C(F)(F)F)cc4)nc3c2)cc1 [Cpd 109, 5-p-tolyl-2-(4-trifluoromethyl-phenoxymethyl)-1H-benzoimidazole]
18			CC(O)c1cccc(-c2ccc3[nH]c(COc4ccc(C(F)(F)F)cc4)nc3c2)c1 (stereo not drawn) [Cpd 111, 1-{3-[2-(4-trifluoromethyl-phenoxymethyl)-1H-benzoimidazol-5-yl]-phenyl}-ethanol]
6			CC(=O)Nc1cccc(-c2ccc3[nH]c(COc4ccc(C(F)(F)F)cc4)nc3c2)c1 [Cpd 114, N-{3-[2-(4-trifluoromethyl-phenoxymethyl)-1H-benzoimidazol-5-yl]-phenyl}-acetamide]
99	8.1		OCc1ccccc1-c1ccc2[nH]c(COc3ccc(C(F)(F)F)cc3)nc2c1 [Cpd 116, {2-[2-(4-trifluoromethyl-phenoxymethyl)-1H-benzoimidazol-5-yl]-phenyl}-methanol]
13			OCc1cccc(-c2ccc3[nH]c(COc4ccc(C(F)(F)F)cc4)nc3c2)c1 [Cpd 117, {3-[2-(4-trifluoromethyl-phenoxymethyl)-1H-benzoimidazol-5-yl]-phenyl}-methanol]
2			OCc1ccc(-c2ccc3[nH]c(COc4ccc(C(F)(F)F)cc4)nc3c2)cc1 [Cpd 118, {4-[2-(4-trifluoromethyl-phenoxymethyl)-1H-benzoimidazol-5-yl]-phenyl}-methanol]
14			Oc1ccccc1-c1ccc2[nH]c(COc3ccc(C(F)(F)F)cc3)nc2c1 [Cpd 119, 2-[2-(4-trifluoromethyl-phenoxymethyl)-1H-benzoimidazol-5-yl]-phenol]
15			Oc1cccc(-c2ccc3[nH]c(COc4ccc(C(F)(F)F)cc4)nc3c2)c1 [Cpd 120, 3-[2-(4-trifluoromethyl-phenoxymethyl)-1H-benzoimidazol-5-yl]-phenol]
9			Oc1ccc(-c2ccc3[nH]c(COc4ccc(C(F)(F)F)cc4)nc3c2)cc1 [Cpd 121, 4-[2-(4-trifluoromethyl-phenoxymethyl)-1H-benzoimidazol-5-yl]-phenol]
7			Nc1cccc(-c2ccc3[nH]c(COc4ccc(C(F)(F)F)cc4)nc3c2)c1 [Cpd 123, 3-[2-(4-trifluoromethyl-phenoxymethyl)-1H-benzoimidazol-5-yl]-phenylamine]
12			Nc1ccc(-c2ccc3[nH]c(COc4ccc(C(F)(F)F)cc4)nc3c2)cc1 [Cpd 124, 4-[2-(4-trifluoromethyl-phenoxymethyl)-1H-benzoimidazol-5-yl]-phenylamine]
4			FC(F)(F)c1ccc(OCc2nc3cc(-c4ccccc4)ccc3[nH]2)cc1 [Cpd 126, 5-phenyl-2-(4-trifluoromethyl-phenoxymethyl)-1H-benzoimidazole]
11			COC(=O)c1cccc(-c2ccc3[nH]c(COc4ccc(C(F)(F)F)cc4)nc3c2)c1 [Cpd 130, 3-[2-(4-trifluoromethyl-phenoxymethyl)-1H-benzoimidazol-5-yl]-benzoic acid methyl ester]

Second part, the compound before the results:

Structure (SMILES)	inhibition at 0.5 µM [%]	IC50 [nM]	inhibition at 0.2 µM (test concentration of 0.2 μm, read-out: percent inhibition (symbol b)) [%]
CC(O)c1ccccc1-c1ccc2[nH]c(COc3ccc(C(F)(F)F)cc3)nc2c1 (stereo not drawn) [Cpd 110, 1-{2-[2-(4-trifluoromethyl-phenoxymethyl)-1H-benzoimidazol-5-yl]-phenyl}-ethanol]	98	58	
CC(O)c1ccc(-c2ccc3[nH]c(COc4ccc(C(F)(F)F)cc4)nc3c2)cc1 (stereo not drawn) [Cpd 112, 1-{4-[2-(4-trifluoromethyl-phenoxymethyl)-1H-benzoimidazol-5-yl]-phenyl}-ethanol]	1		
CC(=O)Nc1ccccc1-c1ccc2[nH]c(COc3ccc(C(F)(F)F)cc3)nc2c1 [Cpd 113, N-{2-[2-(4-trifluoromethyl-phenoxymethyl)-1H-benzoimidazol-5-yl]-phenyl}-acetamide]	42		
CC(=O)Nc1ccc(-c2ccc3[nH]c(COc4ccc(C(F)(F)F)cc4)nc3c2)cc1 [Cpd 115, N-{4-[2-(4-trifluoromethyl-phenoxymethyl)-1H-benzoimidazol-5-yl]-phenyl}-acetamide]	14		
Nc1ccccc1-c1ccc2[nH]c(COc3ccc(C(F)(F)F)cc3)nc2c1 [Cpd 122, 2-[2-(4-trifluoromethyl-phenoxymethyl)-1H-benzoimidazol-5-yl]-phenylamine]	21		
CNS(=O)(=O)c1ccc(-c2ccc3[nH]c(COc4ccc(C(F)(F)F)cc4)nc3c2)cc1 [Cpd 125, N-methyl-4-[2-(4-trifluoromethyl-phenoxymethyl)-1H-benzoimidazol-5-yl]-benzenesulfonamide]	11		
COC(=O)c1ccccc1-c1ccc2[nH]c(COc3ccc(C(F)(F)F)cc3)nc2c1 [Cpd 127, 2-[2-(4-trifluoromethyl-phenoxymethyl)-1H-benzoimidazol-5-yl]-benzoic acid methyl ester]	85	24.3	
CN(C)S(=O)(=O)c1cccc(-c2ccc3[nH]c(COc4ccc(C(F)(F)F)cc4)nc3c2)c1 [Cpd 128, N,N-dimethyl-3-[2-(4-trifluoromethyl-phenoxymethyl)-1H-benzoimidazol-5-yl]-benzenesulfonamide]	13		
CN(C)S(=O)(=O)c1ccc(-c2ccc3[nH]c(COc4ccc(C(F)(F)F)cc4)nc3c2)cc1 [Cpd 129, N,N-dimethyl-4-[2-(4-trifluoromethyl-phenoxymethyl)-1H-benzoimidazol-5-yl]-benzenesulfonamide]	8		
COC(=O)c1ccc(-c2ccc3[nH]c(COc4ccc(C(F)(F)F)cc4)nc3c2)cc1 [Cpd 131, 4-[2-(4-trifluoromethyl-phenoxymethyl)-1H-benzoimidazol-5-yl]-benzoic acid methyl ester]	5		
NS(=O)(=O)c1ccc(C(F)(F)F)cc1-c1ccc2[nH]c(COc3ccc(C(F)(F)F)cc3)nc2c1 [Cpd 132, 4-trifluoromethyl-2-[2-(4-trifluoromethyl-phenoxymethyl)-1H-benzoimidazol-5-yl]-benzenesulfonamide]	100	85	
NS(=O)(=O)c1cc(C(F)(F)F)ccc1-c1ccc2[nH]c(COc3ccc(C(F)(F)F)cc3)nc2c1 [Cpd 133, 5-trifluoromethyl-2-[2-(4-trifluoromethyl-phenoxymethyl)-1H-benzoimidazol-5-yl]-benzenesulfonamide]	92	105	
NS(=O)(=O)c1ccc(F)cc1-c1ccc2[nH]c(COc3ccc(C(F)(F)F)cc3)nc2c1 [Cpd 134, 4-fluoro-2-[2-(4-trifluoromethyl-phenoxymethyl)-1H-benzoimidazol-5-yl]-benzenesulfonamide]	98	16	
NS(=O)(=O)c1c(F)cc(F)cc1-c1ccc2[nH]c(COc3ccc(C(F)(F)F)cc3)nc2c1 [Cpd 135, 2,4-difluoro-6-[2-(4-trifluoromethyl-phenoxymethyl)-1H-benzoimidazol-5-yl]-benzenesulfonamide]	100	47	
NS(=O)(=O)c1ccccc1-c1ccc2[nH]c(NCc3ccc(C(F)(F)F)cc3)nc2c1 [Cpd 136, 2-[2-(4-trifluoromethyl-benzylamino)-1H-benzoimidazol-5-yl]-benzenesulfonamide]	99	68	
CN(Cc1ccc(C(F)(F)F)cc1)c1nc2cc(-c3ccccc3S(N)(=O)=O)ccc2[nH]1 [Cpd 137, 2-{2-[methyl-(4-trifluoromethyl-benzyl)-amino]-1H-benzoimidazol-5-yl}-benzenesulfonamide]	37		
NS(=O)(=O)c1ccccc1-c1ccc2[nH]c(OCc3ccc(C(F)(F)F)cc3)nc2c1 [Cpd 138, 2-[2-(4-trifluoromethyl-benzyloxy)-1H-benzoimidazol-5-yl]-benzenesulfonamide]	18		
NS(=O)(=O)c1ccccc1-c1ccc2[nH]c(C(F)(F)Oc3ccc(C(F)(F)F)cc3)nc2c1 [Cpd 139, 2-{2-[difluoro-(4-trifluoromethyl-phenoxy)-methyl]-1H-benzoimidazol-5-yl}-benzenesulfonamide]	99	21	
CNS(=O)(=O)c1ccccc1-c1ccc2[nH]c(C(F)(F)Oc3ccc(C(F)(F)F)cc3)nc2c1 [Cpd 140, 2-{2-[difluoro-(4-trifluoromethyl-phenoxy)-methyl]-1H-benzoimidazol-5-yl}-N-methyl-benzenesulfonamide]	101	17	
CN(C)S(=O)(=O)c1ccccc1-c1ccc2[nH]c(C(F)(F)Oc3ccc(C(F)(F)F)cc3)nc2c1 [Cpd 141, 2-{2-[difluoro-(4-trifluoromethyl-phenoxy)-methyl]-1H-benzoimidazol-5-yl}-N,N-dimethyl-benzenesulfonamide]	99	83	
O=S(=O)(CCO)c1ccccc1-c1ccc2[nH]c(COc3ccc(C(F)(F)F)cc3)nc2c1 [Cpd 142, 2-{2-[2-(4-trifluoromethyl-phenoxymethyl)-1H-benzoimidazol-5-yl]-benzenesulfonyl}-ethanol]		8	97
CC(O)c1ccccc1-c1ccc2[nH]c(COc3ccc(C(F)(F)F)cc3)nc2c1 (stereo not drawn) [Cpd 143, 1-{2-[2-(4-trifluoromethyl-phenoxymethyl)-1H-benzoimidazol-5-yl]-phenyl}-ethanol]		13	
